Results: US12275733B2, “Substituted pyrido[3,4-b]indoles for the treatment of cartilage disorders” (Sanofi, priority 2016, dated 2025)

Tested on: ATDC5 cells
Test: Chondrogenesis activity assay in ATDC5 cells (collagen type II induction, immunofluorescence)
Format: cell-based, mouse
Settings: Mus musculus; for EC50: collagen type II induction in ATDC5 cells, concentration reaching 50% of maximum induction; for Emax: maximum percent induction of collagen type II relative to internal reference compound at 10 μM, ATDC5 cells
In short: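 Mouse ATDC5 cells in insulin (10 μg/ml)-containing DMEM/F12 differentiation medium with 5% FCS were exposed to compound, typically 40 nM–10 μM at 0.1% DMSO, for 4 days at 37 °C. Intracellular collagen type II was quantified by Alexa Fluor 488 immunostaining with high-content imaging, relative to DMSO and a 10 μM reference compound.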

SMILES	EC50	Emax
COc1ccc(-c2cc(Cl)cc3c2[nH]c2c(C)nccc23)c(C)c1C [Example 187, 6-Chloro-8-(4-methoxy-2,3-dimethyl-phenyl)-1-methyl-9H-pyrido[3,4-b]indole]	2200 nM	> 80%
CCn1c2c(-c3ccc(Oc4ccccc4)cc3)cc(Cl)cc2c2ccnc(C)c21 [Example 246, 6-Chloro-9-ethyl-1-methyl-8-(4-phenoxy-phenyl)-9H-pyrido[3,4-b]indole]	2900 nM	50 to 80%
Cc1nccc2c1[nH]c1c(-c3ccc(Cl)nc3Cl)cc(Br)cc12 [Example 98, 6-Bromo-8-(2,6-dichloro-pyridin-3-yl)-1-methyl-9H-pyrido[3,4-b]indole]	2400 nM	> 80%
CCn1c2cnccc2c2cc(Cl)cc(-c3cccc(OC)c3)c21 [Example 146, 6-Chloro-9-ethyl-8-(3-methoxy-phenyl)-9H-pyrido[3,4-b]indole]	41 nM	< 20%
CCn1c2c(-c3cncc(Cl)c3)cc(Cl)cc2c2ccnc(C)c21 [Example 78, 6-Chloro-8-(5-chloro-pyridin-3-yl)-9-ethyl-1-methyl-9H-pyrido[3,4-b]indole]	> 10000 nM	< 20%
Cc1nccc2c1[nH]c1c(-c3cccc(OCc4ncccn4)c3)cc(Cl)cc12 [Example 267, 6-Chloro-1-methyl-8-[3-(pyrimidin-2-ylmethoxy)-phenyl]-9H-pyrido[3,4-b]indole]	> 3300 nM	50 to 80%
Cc1nccc2c3cc(Cl)cc(-c4cnc(N(C)C)nc4)c3n(CC3CC3)c12 [Example 286, [5-(6-Chloro-9-cyclopropylmethyl-1-methyl-9H-pyrido[3,4-b]indol-8-yl)-pyrimidin-2-yl]-dimethyl-amine]	41 nM	< 20%
Clc1cc(-c2ccc(Cl)nc2Cl)c2[nH]c3cnccc3c2c1 [Example 74, 6-Chloro-8-(2,6-dichloro-pyridin-3-yl)-9H-pyrido[3,4-b]indole]	920 nM	20 to 50%
Cc1nccc2c1[nH]c1c(-c3ccc4[nH]ncc4c3)cc(Cl)cc12 [Example 232, 6-Chloro-8-(1H-indazol-5-yl)-1-methyl-9H-pyrido[3,4-b]indole]	330 nM	> 80%
Cc1nccc2c1[nH]c1c(-c3cccc(CCO)c3)cc(Cl)cc12 [Example 248, 2-[3-(6-Chloro-1-methyl-9H-pyrido[3,4-b]indol-8-yl)-phenyl]-ethanol]	> 3300 nM	20 to 50%
Cc1nccc2c1[nH]c1c(-c3ccc(OCc4ncccn4)cc3)cc(Cl)cc12 [Example 266, 6-Chloro-1-methyl-8-[4-(pyrimidin-2-ylmethoxy)-phenyl]-9H-pyrido[3,4-b]indole]	110 nM	> 80%
CCn1c2cnccc2c2cc(Cl)cc(-c3ccco3)c21 [Example 124, 6-Chloro-9-ethyl-8-furan-2-yl-9H-pyrido[3,4-b]indole]	2600 nM	< 20%
CCn1c2c(-c3ccc(Cl)nc3)cc(Cl)cc2c2ccnc(C)c21 [Example 79, 6-Chloro-8-(6-chloro-pyridin-3-yl)-9-ethyl-1-methyl-9H-pyrido[3,4-b]indole]	3900 nM	> 80%
CCn1c2cnccc2c2cc(Cl)cc(-c3cncnc3)c21 [Example 133, 6-Chloro-9-ethyl-8-pyrimidin-5-yl-9H-pyrido[3,4-b]indole]	> 10000 nM	20 to 50%
Cc1nccc2c1[nH]c1c(-c3cccc(OCCN4CCOCC4)c3)cc(Cl)cc12 [Example 249, 6-Chloro-1-methyl-8-[3-(2-morpholin-4-yl-ethoxy)-phenyl]-9H-pyrido[3,4-b]indole]	> 3300 nM	20 to 50%
CCn1c2c(-c3cnn(CCO)c3)cc(Cl)cc2c2ccnc(C)c21 [Example 44, 2-[4-(6-Chloro-9-ethyl-1-methyl-9H-pyrido[3,4-b]indol-8-yl)-pyrazol-1-yl]-ethanol]	670 nM	> 80%
COc1ccc(-c2cc(Cl)cc3c2[nH]c2c(C(F)(F)F)nccc23)cc1 [Example 155, 6-Chloro-8-(4-methoxy-phenyl)-1-trifluoromethyl-9H-pyrido[3,4-b]indole]	> 3300 nM	< 20%
Cc1nccc2c3cc(Cl)cc(-c4ccccc4C(N)=O)c3n(CC3CC3)c12 [Example 292, 2-(6-Chloro-9-cyclopropylmethyl-1-methyl-9H-pyrido[3,4-b]indol-8-yl)-benzamide]	> 6600 nM	< 20%
COC(=O)c1cc2c([nH]c3c(-c4ccc(OC)cc4)cc(Cl)cc32)c(C)n1 [Example 152, 6-Chloro-8-(4-methoxy-phenyl)-1-methyl-9H-pyrido[3,4-b]indole-3-carboxylic acid methyl ester]	360 nM	< 20%
Cc1nccc2c1[nH]c1c(-c3ccc(OCCn4cccn4)cc3)cc(Br)cc12 [Example 259, 6-Bromo-1-methyl-8-[4-(2-pyrazol-1-yl-ethoxy)-phenyl]-9H-pyrido[3,4-b]indole]	430 nM	> 80%
Cc1nccc2c3cc(Cl)cc(-c4ccc(C#N)nc4)c3n(CC3CC3)c12 [Example 47, 5-(6-Chloro-9-cyclopropylmethyl-1-methyl-9H-pyrido[3,4-b]indol-8-yl)-pyridine-2-carbonitrile]	> 10000 nM	20 to 50%
Cc1nccc2c1[nH]c1c(-c3cnc(N)nc3)cc(Cl)cc12 [Example 154, 5-(6-Chloro-1-methyl-9H-pyrido[3,4-b]indol-8-yl)-pyrimidin-2-ylamine]	8800 nM	20 to 50%
CCn1c2c(-c3ccc(Cl)nc3Cl)cc(Cl)cc2c2ccnc(C)c21 [Example 59, 6-Chloro-8-(2,6-dichloro-pyridin-3-yl)-9-ethyl-1-methyl-9H-pyrido[3,4-b]indole]	1300 nM	> 80%
CCn1c2c(-c3ccc(C(O)c4ccccc4)cc3)cc(Cl)cc2c2ccnc(C)c21 (stereo not drawn) [Example 238, [4-(6-Chloro-9-ethyl-1-methyl-9H-pyrido[3,4-b]indol-8-yl)-phenyl]-phenyl-methanol]	1400 nM	> 80%
COc1ccc(-c2cc(Cl)cc3c2[nH]c2c(C)nccc23)c(Cl)n1 [Example 103, 6-Chloro-8-(2-chloro-6-methoxy-pyridin-3-yl)-1-methyl-9H-pyrido[3,4-b]indole]	1900 nM	> 80%
COc1ccc(-c2cc(Cl)cc3c2[nH]c2cnccc23)cc1 [Example 191, 6-Chloro-8-(4-methoxy-phenyl)-9H-pyrido[3,4-b]indole]	550 nM	> 80%

Second part, led by results:

EC50	SMILES	Emax
130 nM	Cc1nccc2c3cc(Cl)cc(-c4ccc(N5CCCC5)nc4)c3n(CC3CC3)c12 [Example 50, 6-Chloro-9-cyclopropylmethyl-1-methyl-8-(6-pyrrolidin-1-ylpyridin-3-yl)-9H-pyrido[3,4-b]indole]	< 20%
> 10000 nM	CN(C)c1ccc(-c2cc(Cl)cc3c4ccncc4n(CC(F)(F)F)c23)cn1 [Example 84, (5-[6-Chloro-9-(2,2,2-trifluoro-ethyl)-9H-pyrido[3,4-b]indol-8-yl]-pyridin-2-yl)-dimethyl-amine]	20 to 50%
740 nM	CCn1c2cnccc2c2cc(Cl)cc(-c3ccc(C)nc3)c21 [Example 67, 6-Chloro-9-ethyl-8-(6-methyl-pyridin-3-yl)-9H-pyrido[3,4-b]indole]	20 to 50%
7300 nM	FC(F)(F)Cn1c2cnccc2c2cc(Cl)cc(-c3cnc(C4CC4)s3)c21 [Example 174, 6-Chloro-8-(2-cyclopropyl-thiazol-5-yl)-9-(2,2,2-trifluoro-ethyl)-9H-pyrido[3,4-b]indole]	50 to 80%
520 nM	CCn1c2cnccc2c2cc(Cl)cc(-c3ccc(OC)cc3)c21 [Example 142, 6-Chloro-9-ethyl-8-(4-methoxy-phenyl)-9H-pyrido[3,4-b]indole]	> 80%
970 nM	CCn1c2cnccc2c2cc(Cl)cc(-c3ccc(C)cc3)c21 [Example 143, 6-Chloro-9-ethyl-8-p-tolyl-9H-pyrido[3,4-b]indole]	20 to 50%
230 nM	Cn1cc(-c2cc(Cl)cc3c4ccncc4n(CC4CC4)c23)cn1 [Example 287, 6-Chloro-9-cyclopropylmethyl-8-(1-methyl-1H-pyrazol-4-yl)-9H-pyrido[3,4-b]indole]	50 to 80%
2100 nM	FC(F)(F)Cn1c2cnccc2c2cc(Cl)cc(-c3ccc(Cl)nc3)c21 [Example 66, 6-Chloro-8-(6-chloro-pyridin-3-yl)-9-(2,2,2-trifluoro-ethyl)-9H-pyrido[3,4-b]indole]	50 to 80%
> 10000 nM	FC(F)(F)Cn1c2cnccc2c2cc(Cl)cc(-c3cnc(-c4ccccc4)s3)c21 [Example 170, 6-Chloro-8-(2-phenyl-thiazol-5-yl)-9-(2,2,2-trifluoro-ethyl)-9H-pyrido[3,4-b]indole]	20 to 50%
7600 nM	Cc1ccc(-c2cc(Cl)cc3c4ccncc4n(CC(F)(F)F)c23)cn1 [Example 68, 6-Chloro-8-(6-methyl-pyridin-3-yl)-9-(2,2,2-trifluoro-ethyl)-9H-pyrido[3,4-b]indole]	50 to 80%
260 nM	CCn1c2cnccc2c2cc(Cl)cc(-c3ccncc3)c21 [Example 123, 6-Chloro-9-ethyl-8-pyridin-4-yl-9H-pyrido[3,4-b]indole]	20 to 50%
4100 nM	FC(F)(F)Cn1c2cnccc2c2cc(Cl)cc(-c3ccc(N4CCCC4)nc3)c21 [Example 81, 6-Chloro-8-(6-pyrrolidin-1-yl-pyridin-3-yl)-9-(2,2,2-trifluoro-ethyl)-9H-pyrido[3,4-b]indole]	> 80%
2000 nM	CCCn1cc(-c2cc(Cl)cc3c4ccncc4n(CC(F)(F)F)c23)cn1 [Example 161, 6-Chloro-8-(1-propyl-1H-pyrazol-4-yl)-9-(2,2,2-trifluoro-ethyl)-9H-pyrido[3,4-b]indole]	> 80%
